Measurements from patent US11311531B2, “Method for producing benzazoloquinolium (BQs) salts and using the biological activity of the composition” (Sistema Universitario Ana G. Mendez, Inc., priority 2014, dated 2022).
pIC50: −log10 of the molar value.

Key:
[1] = tested on: human colorectal adenocarcinoma COLO-205; assay: Apoptosis analysis by Annexin V expression; assay type: cell-based; conditions: 24 hours
Method: Cell culture conditions: The cell cultures utilized in this study were human colorectal adenocarcinoma COLO-205 (ATCC CCL-222). Cultures were maintained in RPMI 1640 media (ATCC, Manassas Va.) supplemented with 10% fetal bovine serum (ATCC) maintained at 37° C. with 95% air and 5% CO2. Apoptosis analysis by Annexin V expression: The annexin V assay allows detection of the migration phosphatidylserine (PS) to the exterior surface of cells, a characteristic event in apoptotic cells. Approximately 2.5×10^6 cells were treated for 24 hours with 10 μM and 20 μM doses of the BQ test compounds. Controls used in all assays were camptothecin 10 and vehicle (DMSO). After a 24-hour exposure, cells were stained with the annexin V conjugate, and propidium iodide (Biotium, Hayward, Calif.). Samples were analyzed by using the Nucleo Counter NC3000 system annexin V assay (Chemometec, Allerød, Denmark). This system allows for measurement and quantification of stained cells. A one-way ANOVA with post hoc Tukey test was also performed for all assays using GraphPad Prism version 6. DNA Fragmentation: DNA Fragmentation can be used as a marker for detection of cells undergoing apoptosis. This enzyme mediated event can be quantified by measuring DNA fragments. The Nucleo Counter NC3000 assay is based on removal of small DNA fragments and retention of 4′,6-diamidino-2-phenylindole (DAPI) stained higher weight fragments. After treatment with BQ's at the test doses, cells were fixed with 70% ethanol for at least 24 hours, stained with 1 μg/ml DAPI, and analyzed using the NC3000 instrument measuring DAPI intensity. Mitochondrial Membrane Permeability: Mitochondria permeability is central in the cell death process. The Nucleocounter NC3000 preset mitochondrial potential assay was used. Approximately 1×10^6 cells were stained with 5,5′,6,6′-Tetrachloro-1,1′,3,3′-tetraethyl-imidacarbocyanine iodide (JC-1) and 1 μg/ml DAPI and analyzed in the NC3000. depolarized cells will fluoresce green while cells with stable mitochondrial membrane potential will fluoresce orange. The change in ratio of green to orange fluorescence will determine the permeability state of the samples.

[2] = tested on: human colorectal adenocarcinoma COLO-205; assay: Mitochondrial membrane permeability, JC-1 NC3000; assay type: cell-based; conditions: colo 205, versus negative control and camptothecin
Method: (§1) Cell culture conditions: The cell cultures utilized in this study were human colorectal adenocarcinoma COLO-205 (ATCC CCL-222). Cultures were maintained in RPMI 1640 media (ATCC, Manassas Va.) supplemented with 10% fetal bovine serum (ATCC) maintained at 37° C. with 95% air and 5% CO2. Apoptosis analysis by Annexin V expression: The annexin V assay allows detection of the migration phosphatidylserine (PS) to the exterior surface of cells, a characteristic event in apoptotic cells. Approximately 2.5×10^6 cells were treated for 24 hours with 10 μM and 20 μM doses of the BQ test compounds. Controls used in all assays were camptothecin 10 and vehicle (DMSO). […] Samples were analyzed by using the Nucleo Counter NC3000 system annexin V assay (Chemometec, Allerød, Denmark). This system allows for measurement and quantification of stained cells. […] This enzyme mediated event can be quantified by measuring DNA fragments. […] After treatment with BQ's at the test doses, cells were fixed with 70% ethanol for at least 24 hours, stained with 1 μg/ml DAPI, and analyzed using the NC3000 instrument measuring DAPI intensity. […] Approximately 1×10^6 cells were stained with 5,5′,6,6′-Tetrachloro-1,1′,3,3′-tetraethyl-imidacarbocyanine iodide (JC-1) and 1 μg/ml DAPI and analyzed in the NC3000. depolarized cells will fluoresce green while cells with stable mitochondrial membrane potential will fluoresce orange. […]

[3] = tested on: human colorectal adenocarcinoma COLO-205; assay: DNA fragmentation, NC3000 DAPI; assay type: cell-based; conditions: colo 205, versus negative control and camptothecin
Method: as §1

Toledo cells [4] = assay: DNA fragmentation, NC3000 DAPI assay; assay type: cell-based, human; conditions: 48 hours
Method: (§2) Methods—Cultures were exposed for 48 hours to ABQ 48 at doses from 10 μM to 180 μM. Cells were harvested counted and assessed for cell viability implementing the Trypan Blue exclusion method using the Countess™ automated cell counter (Invitrogen Corp. Carlsbad, Calif.). The percentage of viable cells was calculated and graphed using Excel (Microsoft Corp. Redmond, Wash.). The mitochondrial membrane permeability assays was determined applying the Nucleocounter 3000, JC-1 assay. DNA fragmentation and cell cycle alterations were analyzed also through the Nucleocounter 3000 instrument.
(§3) Bioactivity 3. DNA fragmentation—Fragmentation of DNA as a marker for apoptosis is a commonly used assay. Analysis was performed applying the Nucleo counter NC3000 DNA fragmentation assay. Determination of the degree of DNA fragmentation is based on the retention of DAPI, a nucleic acid staining reagent. As described previously TK-6, and Toledo cells were kept in culture at the specified conditions. Cells where then treated with the tested compounds as previously described for 48 hours, after which nutritional media removed, cells harvested, fixed with 70% ethanol, incubated and stained with 1 μg/ml DAPI according to manufacturer's specifications for image analysis measuring DAPI intensity.

TK-6 cells = assay: DNA fragmentation, NC3000 DAPI assay; assay type: cell-based, human; conditions: TK6, 48 hours
Method: as §2, §3
(§4) DNA fragmentation—Analysis was performed applying the Nucleo counter NC3000 DNA fragmentation assay. Determination of the degree of DNA fragmentation is based on the retention of DAPI, a nucleic acid staining reagent. Prior to treatment with the tested compounds A431 and TK-6 cells were kept in culture at the specified conditions. Cells where then treated with the tested compounds at the respective IC50 concentrations ([…] DNA fragmentation protocol was as recommended by Nucleo counter NC3000 manufacturer.

[5] = tested on: NCI 60 human tumor cell line panel; assay: NCI 60 human tumor cell line screen, one dose, whole panel; assay type: cell-based; conditions: for activity in the NCI 60 screen (growth inhibition, in words): one dose; for growth inhibition: 10 μM
Method: (§5) The National Cancer Institute (NCI) 60 human tumor cell line screen uses genetically characterized cells to determine biological activity against various cell lines. The panel is comprised of various cell types representing some of the most important cancer types. Two of the benzazolo[3,2-a]quinolinium salts i.e. NBQ 48 (NSC: D-763303) and ABQ 48 (NSC: D-763307) were tested at a dose of 10 μM on the entire cell line panel. The complete details of the NCI-60 cell line screening are describe in document Feasibility of drug screening with panels of human tumor cell lines using a microculture tetrazolium assay. Cancer research, 1988, 48(3), 589-601 (here included by reference).
(§6) Briefly, the cancer cells are grown in RPM1 1640 medium for 24 hours. Experimental compounds dissolved in DMSO are incubated with cells at 10 μM. After incubation the cells are stained with sulforhodamine B and the absorbance is read on a plate reader. The data reported as a mean graph are shown in the drawings FIG. 21 through FIGS. 24A-24I. For five dose study the test compound is incubated with cells at five different concentrations with 10-fold dilutions, from 10^−4 M, 10^−5, 10^−6, 10^−7, and 10^−8 M. Rest of the procedure is similar to the one dose experiment. After measurement, the (GI50) is calculated from time zero, control growth, and the five concentration absorbance. Inhibitory concentrations (LC50) represent the average of two experiments.
(§7) All the one-dose data of these compounds is reported as a mean of the growth percent of BQ exposed cells. One dose assay results are relative to control and number of cells at time 0. Growth inhibition values are placed from 0 to 100 whereas lethality is reflected in values less than 0. A sample obtained value of 100 means that no growth was inhibited. If the value is for example 30 then growth inhibition is 70%. If a sample has a value of −30 then this means 30% lethality, conversely if the value would be −100 the all cells in the sample are dead.

[6] = tested on: A431 epitheloid carcinoma cells; assay: Cell viability, Trypan Blue exclusion; assay type: cell-based, human
Method: (§8) Cell cultures—The three cell lines A431 epitheloid carcinoma cells (ATCC CRL-1555), the human TK-6 lymphoblasts cells (ATCC CRL-8015) and Toledo lymphoma (CRL-2631 respectively) were obtained from American Type Culture Collection (ATCC, Manassas, Va.) and cultured on RPMI 1640 (ATCC) cell culture media with 10% fetal bovine serum (ATCC). Cell cultures were maintained in a cell culture incubator at 37° C. and 5% CO2.
as §2

TK-6 lymphoblasts cells = assay: Cell viability, Trypan Blue exclusion; assay type: cell-based, human
Method: as §8, §2

Toledo lymphoma cells = assay: Cell viability, Trypan Blue exclusion; assay type: cell-based, human
Method: as §8, §2

A431 cells = assay: DNA fragmentation, NC3000 DAPI assay; assay type: cell-based, human; conditions: A431, ABQ 48 exposure
Method: as §2, §4

Toledo cells [7] = assay: Cell cycle disruption, DAPI image analysis; assay type: cell-based, human; conditions: 48 hours
Method: as §2
(§9) Bioactivity 4. Cell Cycle disruption—Cell cycle effects are of great importance to the characterization of any novel therapeutic agent. This most fundamental cellular process is integral in determining the effects of any drug upon the target cells. After treatment with the tested BQs at previously described conditions, cells were harvested, and stained with 10 μg/ml DAPI (a DNA marker) according to manufacturer's specifications and analyzed with the instrument using image analysis to measure the DAPI intensity as an indicator of the DNA density.

A431 [8] = assay: Cell cycle disruption, DAPI image analysis; assay type: cell-based, human; conditions: A431, ABQ 48 exposure
Method: as §2
as §9, with “Cell” for “Bioactivity 4. Cell”, “agent.” for “agent. This most fundamental cellular process is integral in determining the effects of any drug upon the target cells.”, “BQS 95 and BQS 38” for “BQs”

TK6 [9] = assay: Cell cycle disruption, DAPI image analysis; assay type: cell-based, human; conditions: Tk6, ABQ 48 exposure
Method: as §2
as §9, with “Cell” for “Bioactivity 4. Cell”, “agent.” for “agent. This most fundamental cellular process is integral in determining the effects of any drug upon the target cells.”, “BQS 95 and BQS 38” for “BQs”

A431 [10] = assay: Mitochondrial membrane permeability, JC-1 assay; assay type: cell-based, human
Method: as §2

TK6 [11] = assay: Mitochondrial membrane permeability, JC-1 assay; assay type: cell-based, human
Method: as §2

Toledo = assay: Mitochondrial membrane permeability, JC-1 assay; assay type: cell-based, human
Method: as §2

KM12 = assay: NCI 60 human tumor cell line screen, one dose; assay type: cell-based; conditions: 10 μM
Method: as §5, §6, §7

SK-MEL-5 = assay: NCI 60 human tumor cell line screen, one dose; assay type: cell-based; conditions: 10 μM
Method: as §5, §6, §7

U251 = assay: NCI 60 human tumor cell line screen, one dose; assay type: cell-based; conditions: 10 μM
Method: as §5, §6, §7

[12] = Cytotoxicity activity of CBQs; assay type: cell-based; conditions: human, A-431 cells; A-431 cell line

With “7-(2,3,4-trimethoxybenzyl)-3-nitrobenzimidazo[3,2-a]quinolinium chloride [NBQ 234 TOM]” as the compound, how does the apoptotic cells ([1]; 10 μM) read?
Its apoptotic cells is 83.7%.

And the apoptotic cells ([1]; 20 μM)?
Its apoptotic cells is 87.5%.

What about the mitochondrial membrane permeabilization [2] of the same compound?
The mitochondrial membrane permeabilization was “higher mitochondrial permeabilization in comparison with the negative control (water as vehicle) but lower than cells treated with the positive control camptothecin”.

What about the DNA fragmentation induction [3] of the same compound?
The DNA fragmentation induction was “higher DNA fragmentation in comparison with the negative control (water as vehicle) and higher than the positive control camptothecin”.

Which DNA fragmentation (Toledo cells [4]) does the source give for “7-benzyl-3-nitrobenzimidazolo[3,2-a]quinolinium chloride [NBQ-48]” here?
The DNA fragmentation was “higher than the negative control”.

What about the DNA fragmentation (TK-6 cells) of the same compound?
Its DNA fragmentation is “higher than the negative control”.

And the “activity in the NCI 60 screen (growth inhibition, in words)” value [5]?
The value was “less effective”.

For “7-(2,3,4-Trimethoxybenzyl)-3-aminostyrylbenzimidazo[3,2-a]quinolinium chloride [ABQ 234 TOM]”, which apoptotic cells ([1]; 10 μM) is on record?
The apoptotic cells was 91%.

And the apoptotic cells ([1]; 20 μM)?
The apoptotic cells was 91%.

And the mitochondrial membrane permeabilization [2]?
The mitochondrial membrane permeabilization was “higher mitochondrial permeabilization in comparison with the negative control (water as vehicle) and similar to the positive control camptothecin”.

And the DNA fragmentation induction [3]?
Its DNA fragmentation induction is “did not present evidence of DNA fragmentation”.

Which results are given for `Nc1ccc2c(ccc3n2c2ccccc2[n+]3Cc2ccccc2)c1.[Cl-]` [ABQ-48, 7-Benzyl-3-aminobenzimidazo[3,2-a]quinolinium chloride]?
IC90 ([6]; A431): 90 µM; pIC50 ([6]; A431, 48 hours exposure): 4.64; IC90 (TK-6 lymphoblasts cells; Tk6): 135 µM; pIC50 (TK-6 lymphoblasts cells; Tk6, 48 hours exposure): 5.07; IC90 (Toledo lymphoma cells): 100 µM; pIC50 (Toledo lymphoma cells; 48 hours exposure): 4.30; DNA fragmentation (Toledo cells [4]; listed as ABQ 48): observed; DNA fragmentation (Toledo cells [4]; listed as ABQ48): higher than the negative control; DNA fragmentation (TK-6 cells; listed as ABQ 48): observed; DNA fragmentation (TK-6 cells; listed as ABQ48): higher than the negative control; DNA fragmentation (A431 cells): observed; cell cycle alteration (Toledo cells [7]; listed as ABQ 48): observed; cell cycle alteration (Toledo cells [7]; listed as ABQ48): arrested at the S/G2 stage; cell cycle alteration (A431 [8]): observed; cell cycle alteration (TK6 [9]): observed; mitochondrial membrane permeability (A431 [10]): observed; mitochondrial membrane permeability (TK6 [11]): observed; mitochondrial membrane permeability (Toledo): observed; growth inhibition (KM12): > 90%; growth inhibition (SK-MEL-5): > 90%; growth inhibition (U251): > 90%; growth inhibition ([5]; in no less than 8 cell lines): greater than 60%; growth inhibition ([5]; in several cell lines): > 70%; activity in the NCI 60 screen (growth inhibition, in words) [5]: highly effective

With `Cc1ccc2sc3ccc4c(Cl)cccc4[n+]3c2c1` [CBQ-108, 4-Chloro-10-methylbenzothiazolo[3,2-a]quinolinium chloride] as the compound, how does the pIC50 [12] read?
Its pIC50 is 5.43.
